From PubChem BioAssay (NCI) come the findings set out here.

Among the test systems are A498 renal; 786-0 renal; UACC-62 melanoma; SF-268 CNS; SK-OV-3 ovarian; U251 CNS; KM12 colon; SK-MEL-28 melanoma; HOP-92 NSCLC; K-562 leukemia.
What all share (assay): inhibition of tumour cell growth, NCI panel, 48 h

Structures are written as SMILES.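 These data come from cells grown in 96-well plates and exposed to compound for 48 hours at five concentrations. At the GI50, growth is halved. TGI denotes the concentration required for complete inhibition of growth.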

On to `CC(=O)OCC(=O)C1(O)C(C)CC2C3C=C(C)C4=Cc5c(cnn5-c5ccccc5)CC4(C)C3C(O)CC21C` (centres undefined), for which the GI50 in the assay with A498 renal is 1.4 µM; in the assay on 786-0 renal, 1.49 µM; in the assay with UACC-62 melanoma, 1.77 µM; in the assay on SF-268 CNS it was 1.64 µM; in the assay with U251 CNS it was 1 µM; in the assay on KM12 colon, 1.32 µM. Moreover, the GI50 was 1.41 µM in the assay with SK-MEL-28 melanoma, 0.0261 µM in the assay with HOP-92 NSCLC and 0.5 µM in the assay on K-562 leukemia. In addition, the TGI with A498 renal came to 3.94 µM; in the assay on 786-0 renal, 3.22 µM; in the assay with UACC-62 melanoma it was 3.8 µM; with SF-268 CNS, 11.4 µM; with SK-OV-3 ovarian, 5.71 µM; in the assay with U251 CNS, 3.77 µM. Also, the TGI in the assay on KM12 colon was 2.78 µM; in the assay on SK-MEL-28 melanoma it was 3.01 µM; in the assay on HOP-92 NSCLC it was 7.39 µM; in the assay with K-562 leukemia it was more than 100 µM.
Consider `c1cnc2c(c1)Nc1cnncc1S2`, for which the TGI in the assay with A498 renal, with 786-0 renal, in the assay on UACC-62 melanoma, in the assay on SF-268 CNS, in the assay with SK-OV-3 ovarian and in the assay on U251 CNS was more than 100 µM throughout. The TGI in the assay with KM12 colon, in the assay on SK-MEL-28 melanoma, in the assay on HOP-92 NSCLC and in the assay with K-562 leukemia was more than 100 µM each time.
Take `O=C1CCC(=O)C(C(=O)CCC(=O)Nc2cccc(Cl)c2)C1` (centres undefined): the TGI with A498 renal, with 786-0 renal, in the assay with UACC-62 melanoma, in the assay on SK-OV-3 ovarian, with U251 CNS and in the assay on KM12 colon was more than 100 µM each time. Moreover, the TGI in the assay on HOP-92 NSCLC and in the assay on K-562 leukemia was more than 100 µM throughout.
For `CCOC(=O)C(Cc1ccc(OC)cc1)C(=O)OCC`, the GI50 in the assay on A498 renal is 6.54 µM; in the assay with 786-0 renal it was 6.19 µM; with UACC-62 melanoma it was 4.66 µM; in the assay with SF-268 CNS, 3.73 µM; in the assay on SK-OV-3 ovarian, 10.7 µM; with U251 CNS, 4.79 µM. For the same compound, the results for the GI50 in the assay on KM12 colon, in the assay on HOP-92 NSCLC and in the assay with K-562 leukemia were 3.01 µM, 6.93 µM and 1.83 µM, respectively. The TGI in the assay with A498 renal came to 21.4 µM; in the assay with 786-0 renal it was 18.7 µM; with UACC-62 melanoma, 17.3 µM; in the assay on SF-268 CNS, 15.2 µM; with SK-OV-3 ovarian it was 55.8 µM; in the assay on U251 CNS, 17.9 µM. The values for the TGI in the assay with KM12 colon, with HOP-92 NSCLC and with K-562 leukemia were 9.85 µM, 30.4 µM and 11.8 µM, respectively.
For the compound `C=C1C(=O)OC2CC3(C)OC3C3OC3C3=CC(OC3=O)C12` (centres undefined), the GI50 is 15.8 µM with A498 renal; 17.2 µM in the assay on 786-0 renal; 9.11 µM in the assay on UACC-62 melanoma; 19 µM in the assay on SF-268 CNS; 25.4 µM in the assay on SK-OV-3 ovarian; 17.7 µM with U251 CNS. Moreover, the GI50 is 18.7 µM with KM12 colon, 5.75 µM in the assay with SK-MEL-28 melanoma, 2.01 µM in the assay with HOP-92 NSCLC and 2.54 µM with K-562 leukemia. Also, the TGI is 30.5 µM in the assay with A498 renal; 33.8 µM in the assay on 786-0 renal; 22.3 µM in the assay on UACC-62 melanoma; 38 µM in the assay on SF-268 CNS; more than 57 µM with SK-OV-3 ovarian; 35 µM in the assay with U251 CNS. Moreover, the TGI with KM12 colon worked out at 37.7 µM; in the assay on SK-MEL-28 melanoma, 12.5 µM; in the assay with HOP-92 NSCLC, 4.77 µM; with K-562 leukemia it was 6.85 µM.
As for `CC1=NN(c2ccccc2)C(=O)C1N=Nc1ccc(Br)c(C)c1` (centres undefined), the TGI in the assay with A498 renal, in the assay on 786-0 renal, with UACC-62 melanoma, in the assay with SK-OV-3 ovarian, in the assay with U251 CNS and with KM12 colon was more than 100 µM each time. Further, the TGI with SK-MEL-28 melanoma, in the assay on HOP-92 NSCLC and in the assay on K-562 leukemia was more than 100 µM in each case.
For `O=c1[nH]c2c(O)cccc2c2cc3c(c(O)c12)OCO3`, the TGI is 56.5 µM in the assay on A498 renal; more than 100 µM in the assay on 786-0 renal; 71.3 µM with UACC-62 melanoma; 94.2 µM with SF-268 CNS; 84.7 µM with SK-OV-3 ovarian; 63.4 µM in the assay on U251 CNS. The figures for the TGI in the assay with KM12 colon, in the assay with HOP-92 NSCLC and with K-562 leukemia were 41.2 µM, 63.9 µM and more than 100 µM, respectively.
For `CS[C@@]1(C(=O)Nc2ccc3[nH]nc(-c4ccc(OC(C)C)nc4)c3c2)CCN(CC(=O)N2CC=C(c3ccc(-c4ncn(C)n4)cc3)CC2)C1`, the GI50 is 0.176 µM with A498 renal; 5.27 µM in the assay with 786-0 renal; more than 100 µM in the assay on SF-268 CNS; more than 100 µM in the assay on SK-OV-3 ovarian; 1.65 µM in the assay on U251 CNS; 0.929 µM in the assay on KM12 colon. The values for the GI50 in the assay with SK-MEL-28 melanoma, in the assay on HOP-92 NSCLC and in the assay on K-562 leukemia were 0.0293 µM, 0.228 µM and 2.24 µM, respectively. Further, the TGI was 0.641 µM in the assay with A498 renal; more than 100 µM in the assay on 786-0 renal; more than 100 µM with SF-268 CNS; more than 100 µM in the assay with SK-OV-3 ovarian; more than 100 µM in the assay with U251 CNS; more than 100 µM in the assay on KM12 colon. Besides, the TGI is 0.441 µM in the assay with SK-MEL-28 melanoma, 1.66 µM in the assay with HOP-92 NSCLC and more than 100 µM in the assay with K-562 leukemia.
Consider `Cc1cc(=O)[nH]c(CNC(=O)Cc2ccccc2)n1`, for which the TGI with A498 renal, in the assay on 786-0 renal, in the assay on UACC-62 melanoma, with SF-268 CNS, with SK-OV-3 ovarian and in the assay with KM12 colon was more than 100 µM throughout. The TGI in the assay on SK-MEL-28 melanoma, in the assay on HOP-92 NSCLC and with K-562 leukemia was more than 100 µM in each case.
As for `NNC(=S)N/N=C/C(Cl)=C(\Cl)C(=O)O`, the TGI in the assay on A498 renal, in the assay on 786-0 renal, in the assay with UACC-62 melanoma, in the assay on SF-268 CNS, in the assay on U251 CNS and with SK-MEL-28 melanoma was more than 100 µM each time. Also, the TGI with HOP-92 NSCLC and with K-562 leukemia was more than 100 µM throughout.
Regarding `COc1cccc(Nc2nccc(Nc3ccc4[nH]ncc4c3)n2)c1`, the GI50 in the assay on A498 renal was 1.65 µM; with 786-0 renal, 1.46 µM; with SF-268 CNS, 1.86 µM; in the assay with SK-OV-3 ovarian it was 2.31 µM; with U251 CNS it was 1.58 µM; in the assay on KM12 colon, 1.64 µM. Besides, the GI50 is 1.45 µM in the assay on HOP-92 NSCLC and 1.3 µM with K-562 leukemia. For the same compound, the TGI with A498 renal came out at 5.3 µM; with 786-0 renal, 2.91 µM; in the assay on SF-268 CNS, 5.89 µM; in the assay with SK-OV-3 ovarian it was 5.4 µM; in the assay on U251 CNS it was 3.18 µM; in the assay with KM12 colon, 4.81 µM. Also, the TGI amounted to 4.14 µM in the assay on HOP-92 NSCLC and 3.89 µM in the assay on K-562 leukemia.
